Test system: Hek-PSMA cells
Assay: ADCC reporter (jurkat activation) assay directly in polyclonal human IgG (Figure 5C)
Type: cell-based
Conditions: 9 μM compound with 230 μM human IgG 24 h, no column step
Description: Figure 5 Functional analysis of PSMA-targeting SuFEx cARMs. A. Chemical structure of the functional GU cARM molecule used for PSMA targeting. B. Confocal (top) and fluorescent imaging (bottom) of Hek-PSMA cells treated with anti-23F only or anti-23F antibody pre-incubated with rhamnose-SO2F-cARM 14. C. Jurkat activation assay evaluation of 14 directly in polyclonal human IgG. Each cARM/ARM (9 μM) was incubated with polyclonal human IgG (230 μM) overnight and then added to pre-plated Hek-P cells (50,000 cells). To this cell solution, luciferase expressing jurkat cells were added and incubated for 24 hours. Activation of jurkat cells was determined by measuring luciferase expression with a BioGlo assay kit. D. ADCP assays using various PSMA-expressing model and bonafide cancer cell lines. Each cARM/ARM (8 μM) was incubated with anti-23F (4 μM) overnight followed by addition to target cells (150,000 cells). Next, IFN-γ activated monocytes (150,000 cells) were added and incubated for 1 hour at 37 °C. ADCP was determined via flow cytometry.
Next, the capacity of alkyl-AI-cARM 10, alkyl-ARM 11, and SO2F-cARM 14 to direct immune activation via polyclonal anti-rhamnose antibodies was evaluated using a modified ADCC reporter assay (Figure 5C). ADCC represents a major mode of antitumor NK cell immunotherapeutic function, common to many FDA-approved monoclonal antibody therapies. […]

C[C@@H]1O[C@@H](OCc2cn(CCc3cn(C(=O)OCCNC(=O)CCCCCNC(=O)CCCCCNC(=O)CCCCCNC(=O)NCCCC[C@H](NC(=O)N[C@@H](CCC(=O)O)C(=O)O)C(=O)O)cn3)nn2)[C@H](O)[C@H](O)[C@H]1O [compound 10]
jurkat (immune) activation: failed to direct immune activation

C[C@@H]1O[C@@H](OCc2cn(CCCNC(=O)OCCNC(=O)CCCCCNC(=O)CCCCCNC(=O)CCCCCNC(=O)NCCCC[C@H](NC(=O)N[C@@H](CCC(=O)O)C(=O)O)C(=O)O)nn2)[C@H](O)[C@H](O)[C@H]1O [compound 11]
jurkat (immune) activation: failed to direct immune activation

Reference: PMC10683482, “Offsetting Low-Affinity Carbohydrate Binding with Covalency to Engage Sugar-Specific Proteins for Tumor-Immune Proximity Induction” (ACS Central Science, 2023)
